In ChEMBL document CHEMBL1155301, “Optimization of the aminopyridopyrazinones class of PDE5 inhibitors: discovery of 3-[(trans-4-hydroxycyclohexyl)amino]-7-(6-methoxypyridin-3-yl)-1-(2-propoxyethyl)pyrido[3,4-b]pyrazin-2(1H)-one” (Bioorg Med Chem Lett, 2009):
Where “and” joins values, the source holds several entries; their conditions need not be identical. Identical values can stand only once. Calls of active or inactive are those of the source. The calls are words filed in the database; no cut-off is given here.

Test system: Rattus norvegicus
Test: Antihypertensive activity against telemeterized rat at 10 mg/kg, po
Type: functional, organism-based
Set-up: dose 10 mg/kg
Conditions: not given

SMILES	Activity
CCCOCCn1c(=O)c(NCCO)nc2ncc(-c3ccc(OC)nc3)cc21	Active
CCCOCCn1c(=O)c(NCCOCC)nc2ncc(-c3ccc(OC)nc3)cc21	inactive
CCCOCCn1c(=O)c(NCC2CCOCC2)nc2ncc(-c3ccc(OC)nc3)cc21	Active
CCCOCCn1c(=O)c(NCCO)nc2cnc(-c3ccc(OC)nc3)cc21	inactive
CCCOCCn1c(=O)c(NCC2CCCO2)nc2cnc(-c3ccc(OC)nc3)cc21 (racemic)	Active
CCCOCCn1c(=O)c(NCC(=O)N(C)C)nc2cnc(-c3ccc(OC)nc3)cc21	Active
CCCOCCn1c(=O)c(NCC(=O)O)nc2cnc(-c3ccc(OC)nc3)cc21	inactive
CCCOCCn1c(=O)c(NCCNCCO)nc2cnc(-c3ccc(OC)nc3)cc21	Active
CCCOCCn1c(=O)c(NCc2ccccn2)nc2cnc(-c3ccc(OC)nc3)cc21	Active
CCCOCCn1c(=O)c(NCc2cnccn2)nc2ncc(-c3ccc(OC)nc3)cc21	Active
CCCOCCn1c(=O)c(NCC(=O)N(C)C)nc2ncc(-c3ccc(OC)nc3)cc21	Active

Test system: not listed separately
Test: Clearance in dog at 2 mg/kg, po and 2 mg/kg, iv
Type: ADME, organism-based, Canis lupus familiaris
Conditions: in vivo

SMILES	clearance
CCCOCCn1c(=O)c(NCC(=O)N(C)C)nc2cnc(-c3ccc(OC)nc3)cc21	1.8 mL/min/kg
CCCOCCn1c(=O)c(NCC(=O)N(C)C)nc2ncc(-c3ccc(OC)nc3)cc21	9.4 mL/min/kg

Test system: not listed separately
Test: Half life in rat at 2 mg/kg, po and 2 mg/kg, iv
Type: ADME, organism-based
Conditions: in vivo

SMILES	half-life
CCCOCCn1c(=O)c(NCC(=O)N(C)C)nc2cnc(-c3ccc(OC)nc3)cc21	0.6 h
CCCOCCn1c(=O)c(NCC(=O)N(C)C)nc2ncc(-c3ccc(OC)nc3)cc21	0.6 h

Test system: not listed separately
Test: Half life in dog at 2 mg/kg, po and 2 mg/kg, iv
Type: ADME, organism-based, Canis lupus familiaris
Conditions: in vivo

SMILES	half-life
CCCOCCn1c(=O)c(NCC(=O)N(C)C)nc2cnc(-c3ccc(OC)nc3)cc21	4.3 h
CCCOCCn1c(=O)c(NCC(=O)N(C)C)nc2ncc(-c3ccc(OC)nc3)cc21	2.1 h

Test system: not listed separately
Test: Oral bioavailability in dog at 2 mg/kg
Type: ADME, organism-based, Canis lupus familiaris
Conditions: in vivo

SMILES	bioavailability
CCCOCCn1c(=O)c(NCC(=O)N(C)C)nc2cnc(-c3ccc(OC)nc3)cc21	30%
CCCOCCn1c(=O)c(NCC(=O)N(C)C)nc2ncc(-c3ccc(OC)nc3)cc21	32%

Test system: not listed separately
Test: Clearance in rat at 2 mg/kg, po and 2 mg/kg, iv
Type: ADME, organism-based
Conditions: in vivo

SMILES	clearance
CCCOCCn1c(=O)c(NCC2CCOCC2)nc2ncc(-c3ccc(OC)nc3)cc21	30 mL/min/kg
CCCOCCn1c(=O)c(NCC2CCCO2)nc2cnc(-c3ccc(OC)nc3)cc21 (racemic)	52 mL/min/kg
CCCOCCn1c(=O)c(NCC(=O)N(C)C)nc2cnc(-c3ccc(OC)nc3)cc21	27 mL/min/kg
CCCOCCn1c(=O)c(NCCNCCO)nc2cnc(-c3ccc(OC)nc3)cc21	170 mL/min/kg
CCCOCCn1c(=O)c(NCc2ccccn2)nc2cnc(-c3ccc(OC)nc3)cc21	21.9 mL/min/kg
CCCOCCn1c(=O)c(NCC(=O)N(C)C)nc2ncc(-c3ccc(OC)nc3)cc21	33 mL/min/kg

Test system: not listed separately
Test: Oral bioavailability in rat at 2 mg/kg
Type: ADME, organism-based
Conditions: in vivo

SMILES	bioavailability
CCCOCCn1c(=O)c(NCC2CCOCC2)nc2ncc(-c3ccc(OC)nc3)cc21	15%
CCCOCCn1c(=O)c(NCC(=O)N(C)C)nc2cnc(-c3ccc(OC)nc3)cc21	52%
CCCOCCn1c(=O)c(NCCNCCO)nc2cnc(-c3ccc(OC)nc3)cc21	53%
CCCOCCn1c(=O)c(NCc2ccccn2)nc2cnc(-c3ccc(OC)nc3)cc21	54%
CCCOCCn1c(=O)c(NCC(=O)N(C)C)nc2ncc(-c3ccc(OC)nc3)cc21	46%

Biological target: cGMP-specific 3',5'-cyclic phosphodiesterase (Homo sapiens, UniProt O76074)
Test: Inhibition of PDE5
Conditions: not given

SMILES	IC50
CCCOCCn1c(=O)c(NCCO)nc2ncc(-c3ccc(OC)nc3)cc21	1.17 nM
CCCOCCn1c(=O)c(NCCOCC)nc2ncc(-c3ccc(OC)nc3)cc21	0.17 nM
CCCOCCn1c(=O)c(NCC2CCOCC2)nc2ncc(-c3ccc(OC)nc3)cc21	0.14 nM
CCCOCCn1c(=O)c(NCCO)nc2cnc(-c3ccc(OC)nc3)cc21	0.9 nM
CCCOCCn1c(=O)c(NCC2CCCO2)nc2cnc(-c3ccc(OC)nc3)cc21 (racemic)	0.05 nM
CCCOCCn1c(=O)c(NCC(=O)N(C)C)nc2cnc(-c3ccc(OC)nc3)cc21	0.68 nM
CCCOCCn1c(=O)c(NCC(=O)O)nc2cnc(-c3ccc(OC)nc3)cc21	1.05 nM
CCCOCCn1c(=O)c(NCCNCCO)nc2cnc(-c3ccc(OC)nc3)cc21	1.1 nM
CCCOCCn1c(=O)c(NCc2ccccn2)nc2cnc(-c3ccc(OC)nc3)cc21	0.04 nM
CCCOCCn1c(=O)c(NCc2cnccn2)nc2ncc(-c3ccc(OC)nc3)cc21	0.28 nM
CCCOCCn1c(=O)c(NCC(=O)N(C)C)nc2ncc(-c3ccc(OC)nc3)cc21	2.59 nM

Test system: not listed separately
Test: Volume of distribution in dog at 2 mg/kg, iv and 2 mg/kg, po
Type: ADME, organism-based, Canis lupus familiaris
Conditions: in vivo

SMILES	Vd
CCCOCCn1c(=O)c(NCC(=O)N(C)C)nc2cnc(-c3ccc(OC)nc3)cc21	0.4 L/kg
CCCOCCn1c(=O)c(NCC(=O)N(C)C)nc2ncc(-c3ccc(OC)nc3)cc21	1.2 L/kg

Test system: not listed separately
Test: Selectivity ratio of IC50 for PDE5 to IC50 for PDE6
Conditions: not given

SMILES	Ratio IC50
CCCOCCn1c(=O)c(NCCO)nc2ncc(-c3ccc(OC)nc3)cc21	97
CCCOCCn1c(=O)c(NCCO)nc2cnc(-c3ccc(OC)nc3)cc21	30
CCCOCCn1c(=O)c(NCC(=O)N(C)C)nc2cnc(-c3ccc(OC)nc3)cc21	97
CCCOCCn1c(=O)c(NCC(=O)O)nc2cnc(-c3ccc(OC)nc3)cc21	43 and 30

Test system: not listed separately
Test: Volume of distribution in rat at 2 mg/kg, iv and 2 mg/kg, po
Type: ADME, organism-based
Conditions: in vivo

SMILES	Vd
CCCOCCn1c(=O)c(NCC(=O)N(C)C)nc2cnc(-c3ccc(OC)nc3)cc21	0.9 L/kg
CCCOCCn1c(=O)c(NCC(=O)N(C)C)nc2ncc(-c3ccc(OC)nc3)cc21	1.1 L/kg

Biological target: Rod cGMP-specific 3',5'-cyclic phosphodiesterase subunit alpha (Homo sapiens, UniProt P16499)
Sequence (P16499 whole entry): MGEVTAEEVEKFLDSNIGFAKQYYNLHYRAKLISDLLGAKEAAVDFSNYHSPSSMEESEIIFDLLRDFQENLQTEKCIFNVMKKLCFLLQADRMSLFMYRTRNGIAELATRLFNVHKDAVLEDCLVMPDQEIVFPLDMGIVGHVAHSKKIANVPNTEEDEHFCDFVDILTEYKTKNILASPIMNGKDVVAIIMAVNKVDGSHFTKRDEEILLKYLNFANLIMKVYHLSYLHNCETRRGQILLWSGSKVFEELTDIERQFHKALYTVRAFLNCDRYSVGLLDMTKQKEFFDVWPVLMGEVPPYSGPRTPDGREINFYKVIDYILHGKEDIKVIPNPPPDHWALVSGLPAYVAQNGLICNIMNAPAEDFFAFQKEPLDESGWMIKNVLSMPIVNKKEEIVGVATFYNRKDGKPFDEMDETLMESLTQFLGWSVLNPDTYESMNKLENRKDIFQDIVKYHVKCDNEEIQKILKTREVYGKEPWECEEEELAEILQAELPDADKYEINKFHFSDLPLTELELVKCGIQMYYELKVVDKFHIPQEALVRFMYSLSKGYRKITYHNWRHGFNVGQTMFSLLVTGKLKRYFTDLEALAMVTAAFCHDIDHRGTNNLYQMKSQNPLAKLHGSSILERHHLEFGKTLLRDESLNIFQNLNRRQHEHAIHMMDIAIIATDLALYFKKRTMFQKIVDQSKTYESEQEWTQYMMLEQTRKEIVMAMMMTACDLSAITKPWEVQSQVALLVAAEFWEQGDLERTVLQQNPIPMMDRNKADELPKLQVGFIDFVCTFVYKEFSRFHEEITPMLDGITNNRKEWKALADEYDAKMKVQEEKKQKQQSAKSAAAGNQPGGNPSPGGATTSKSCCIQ
Test: Inhibition of PDE6
Conditions: not given

SMILES	IC50
CCCOCCn1c(=O)c(NCCO)nc2ncc(-c3ccc(OC)nc3)cc21	114 nM
CCCOCCn1c(=O)c(NCCOCC)nc2ncc(-c3ccc(OC)nc3)cc21	57.4 nM
CCCOCCn1c(=O)c(NCC2CCOCC2)nc2ncc(-c3ccc(OC)nc3)cc21	31.4 nM
CCCOCCn1c(=O)c(NCCO)nc2cnc(-c3ccc(OC)nc3)cc21	26.3 nM
CCCOCCn1c(=O)c(NCC2CCCO2)nc2cnc(-c3ccc(OC)nc3)cc21 (racemic)	8.6 nM
CCCOCCn1c(=O)c(NCC(=O)N(C)C)nc2cnc(-c3ccc(OC)nc3)cc21	86.6 nM
CCCOCCn1c(=O)c(NCC(=O)O)nc2cnc(-c3ccc(OC)nc3)cc21	45.5 nM
CCCOCCn1c(=O)c(NCCNCCO)nc2cnc(-c3ccc(OC)nc3)cc21	272 nM
CCCOCCn1c(=O)c(NCc2ccccn2)nc2cnc(-c3ccc(OC)nc3)cc21	10.8 nM
CCCOCCn1c(=O)c(NCc2cnccn2)nc2ncc(-c3ccc(OC)nc3)cc21	23.6 nM
CCCOCCn1c(=O)c(NCC(=O)N(C)C)nc2ncc(-c3ccc(OC)nc3)cc21	398 nM
